The test has as its target T1, ACSL4 (long-chain acyl-CoA synthetase 4) (Rattus norvegicus, UniProt O35547).
T1 construct: purified recombinant rat FLAG-ACSL4
As to the kind of experiment: ACSL enzyme activity assay with […] palmitate, scintillation counting. The format is biochemical.

The values that follow come from paper PMC9545763, “Therapeutic potential of deuterium‐stabilized (R)‐pioglitazone—PXL065—for X‐linked adrenoleukodystrophy” (Journal of Inherited Metabolic Disease, 2022).

T1 sequence (O35547 whole entry): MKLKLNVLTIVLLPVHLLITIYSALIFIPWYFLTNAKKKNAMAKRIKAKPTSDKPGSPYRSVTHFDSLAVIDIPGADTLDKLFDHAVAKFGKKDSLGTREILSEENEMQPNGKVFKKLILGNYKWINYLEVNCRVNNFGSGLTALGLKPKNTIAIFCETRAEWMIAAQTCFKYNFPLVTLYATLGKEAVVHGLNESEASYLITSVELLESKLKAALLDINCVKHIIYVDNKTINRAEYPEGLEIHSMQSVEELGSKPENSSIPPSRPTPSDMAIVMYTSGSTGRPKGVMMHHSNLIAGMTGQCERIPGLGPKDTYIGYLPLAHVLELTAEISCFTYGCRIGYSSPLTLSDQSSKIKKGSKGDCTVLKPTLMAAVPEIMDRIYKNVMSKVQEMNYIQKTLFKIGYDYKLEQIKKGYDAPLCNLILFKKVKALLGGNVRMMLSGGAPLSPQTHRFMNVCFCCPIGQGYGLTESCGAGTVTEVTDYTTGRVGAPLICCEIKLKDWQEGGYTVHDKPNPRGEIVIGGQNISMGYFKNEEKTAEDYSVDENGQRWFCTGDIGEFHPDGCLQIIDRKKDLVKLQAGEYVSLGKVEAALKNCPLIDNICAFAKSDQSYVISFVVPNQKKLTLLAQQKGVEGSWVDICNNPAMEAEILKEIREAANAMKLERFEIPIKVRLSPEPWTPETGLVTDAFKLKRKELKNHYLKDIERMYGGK

In turn, `CCc1ccc(CCOc2ccc(CC3SC(=O)NC3=O)cc2)nc1` (racemic) [pioglitazone] displayed an IC50 of 2080 nM.

Take `CCc1ccc(CCOc2ccc(C[C@H]3SC(=O)NC3=O)cc2)nc1` [PXL065]: the midpoint of inhibition, the IC50, lay at 2120 nM.

As usually defined, the IC50 is the concentration at which inhibition is half-maximal. Read a high IC50 as lower potency.
